Assay [1] concerns the target GnRH receptor (HepG2 membrane preparation). Kind of assay: GnRH in vitro binding to HepG2 membrane preparation (radioreceptor assay). The following applies: Labeled ligand 125I-[D-Lys6]-GnRH; 95% confidence interval in parentheses; 4° C. The arrangement: species or system human. Here is the method: (§1) Cells were grown to confluence as previously described and harvested from the flasks by using a rubber policeman. The cells were washed in normal assay buffer (([…] Tris[hydroxymethyl] aminomethane[Tris]-HCl), containing 1 mM dithiothreitol and 0.5% BSA [fraction-V] (pH 7.6)) and precipitated by centrifugation at 500g for 5 minutes at 4° C.
(§2) The cleaned cells were homogenized in 50 ml of freshly prepared ice cold 25 mM sucrose in assay buffer containing 1 mM Phenylmethanesulphonyl fluoride and 5 mM Ethylenediaminetetraacetic acid, using a glass TEFLON (polytetra-fluoroethylene) homogenizer, followed by centrifugation at 100 ×g for 5 minutes (4° C.). The supernatant was further centrifuged at 17,000×g for 30 minutes at 4° C., and the pellet (crude membrane preparation) washed briefly and resuspended in the assay buffer (approximately 40-50 μg membrane protein or approximately 1 x 10^6 cell equivalent per 100 μl).
(§3) For protein determination, aliquots of crude membrane preparations were washed twice with double distilled water by centrifugation (25,000 ×g) and assayed for protein content, using BSA as the standard. The binding assay was carried out at 4° C.
(§4) The displacement curves were fitted for both single and two classes of binding sites by computer calculated lines, as described.
(§5) The potency of various GnRH-related peptides in terms of binding (equilibrium dissociation constant; kd) and growth suppression activity in the human hepatocarcinoma derived cell line HepG2 was studied. […] Data analysis was performed as described.
(§6) Homologous displacement of GnRH-related peptides in membrane homogenates prepared from HepG2 cells and non-cancerous postmortem human liver tissue was studied. Values (mean ± SEM) represent specific binding [B/T, bound over total, in %] determined by subtraction of non-saturable binding in the presence of excess peptides (10^-5 M). Results were obtained from 5 to 7 separated experiments, each carried out in triplicate. The binding data were analyzed by computerized Scatchard analysis (LIGAND) according to Munson and Rodbard.

Assay [2] concerns the target GnRH binding sites (normal human liver). The assay is described as follows: GnRH in vitro binding to non-cancerous postmortem human liver membrane preparation. The following applies: Labeled ligand 125I-[D-Lys6]-GnRH; 95% confidence interval in parentheses; read-out: Receptor Binding Activity (Kd, nM) Normal Human Liver. Here is the method:
as §1, §2
(§7) A similar protocol was used to prepare the membrane from fresh rat and frozen human postmortem liver. In all experiments the final membrane preparation was used in the radioreceptor assay within 45 minutes.
as §3, §4, §6

The target of assay [3] is GnRH binding sites (normal rat liver). The assay is described as follows: GnRH in vitro binding to normal rat liver membrane preparation. The conditions noted are these: Labeled ligand 125I-[D-Lys6]-GnRH; 95% confidence interval in parentheses; read-out: Receptor Binding Activity (Kd, nM) Normal Rat Liver. Here is the method:
as §1, §2, §7, §3, §4

Assay [4] deals with HepG2 cells. Kind of assay: HepG2 cell proliferation (cell counting). The assay is classed as cell-based. Here is the method:
(§8) HepG2 or HuH-7 cells were maintained in 75-cm^2 flasks at 37° C. under a humidified atmosphere of 5% CO2 in modified Minimum Essential Medium (Gibco-BRL) supplemented with 10% fetal bovine serum, 200mM 1-Glutamine (1%), Penicillin (1000 IU/ml), streptomycin (100 μg/ml) and sodium bicarbonate (0.15%). Cells grown to confluence were harvested following mild trypsinization and wash (twice by slow centrifugation; 400 g for 10 minutes) in normal culture medium.
(§9) Approximately 50,000 cells in 1.0 ml culture media were plated in 24 deep well plates (Flacon). This time was considered day -1. Cells were allowed to grow for one day. The growing cells were then treated with various hormones (at day 0) prepared aseptically in culture media immediately prior to addition. The final volume was maintained at 1 ml. The plates were then incubated at 37° C. for a period of 4 to 6 days, as described above.
(§10) Cells in each well were harvested by removal of culture media and incubation with 0.5 ml 0.25% trypsin and 1.75 mM EDTA for 30 minutes at 37° C. Cells were then transferred into 1.5 ml microfuge tubes and centrifuged at 100g for 10 minutes. The supernatant was removed and the pellet was resuspended in a final volume of 200 μl of culture media containing 10% trypan blue.
Cells were then counted using a hemocytometer. The average cell mortality was less than 5.0% and was not different among different treatment groups. Each value represents the mean and standard error of several experiments (n>3), each carried out in quadruplicate incubations at each time point and hormone concentration.
as §5
The effect of GnRH-related peptides on the proliferation of the human hepatoma derived cell line HepG2 was studied. Values (mean ± SEM) represent the percent change with respect to initial cell number at day 0 over a period of six days in culture.
The dose response curves were analyzed by a computerized, four parameter curve fitting program (ALLFIT) as described. The result of time-related response on cell proliferation was analyzed using a two-way ANOVA with multiple comparison means of using computerized statistical package (SYSTAT).

Assay [5] relates to HepG2 cells. Kind of assay: 3H-thymidine uptake in HepG2 cells. It counts as cell-based, human. Here is the method: (§11) […] 3H-thymidine (Amersham TRK.120, 102 mCi/mg) was added to each well and was incubated at 37° C. for 4 hours. The media containing unabsorbed 3H-thymidine was aspired off and the cells were washed twice with ice cold phosphate buffered saline (PBS). The cells were then fixed with 5% trichloro acetic acid (TCA) for 20 minutes and washed twice with double distilled water. The fixed cells were solubilized with 0.2 ml NCS tissue solubilizer (Amersham) and counted for radioactivity using a liquid scintillation counter (50% efficiency).
The effect of GnRH-related peptides on ^3 H-thymidine incorporation was tested to assess changes in DNA synthesis of HepG2 cells (FIGS. 7A and 7B). Methods used were as previous described.

The subject of assay [6] is HuH-7 cells. The assay is described as follows: HuH-7 cell proliferation. The following applies: single administration at 10^-7 M, six days in culture. The assay is classed as cell-based, human. Here is the method: as §8, §9, §10
Cells were then counted using a hemocytometer. […]

Assay [7] deals with HuH-7 cells. Kind of assay: 3H-thymidine uptake in HuH-7 cells. It counts as cell-based, human. The following applies: 10^-7 M, time-related. Here is the method: as §11

Molecules are shown by their SMILES. “Also recorded” adds a separate entry of the source. Read-outs that look alike come from different tables or passages of the source.

Consider `CC(C)C[C@H](NC(=O)[C@@H](CCCCN)NC(=O)[C@H](Cc1ccc(O)cc1)NC(=O)[C@H](CO)NC(=O)[C@H](Cc1c[nH]c2ccccc12)NC(=O)[C@H](Cc1c[nH]cn1)NC(=O)[C@@H]1CCC(=O)N1)C(=O)N[C@@H](CCCNC(=N)N)C(=O)N1CCC[C@H]1C(=O)NCC(N)=O` [[D-Lys^6]-GnRH, pGlu-His-Trp-Ser-Tyr-DLys-Leu-Arg-Pro-Gly-NH2], for which the dissociation constant (Kd) (commonly the constant that tells how readily two partners part at equilibrium) in assay [1] was found to be 9.17 nM; in assay [2], 3300 nM; in assay [3], 769 nM. Further, the “Suppression of HepG2 growth ED50” value in assay [4] is 2.00 nM; in assay [4] (calculated at day 4 of growth) it was 2.00 ± 0.9 nM. Further, the HepG2 doubling time was 65 ± 4.9 h in assay [4] (10 nM, calculated over 4 days of growth); 77 ± 6.7 h in assay [4] (100 nM, calculated over 4 days of growth); 105 ± 10.0 h in assay [4] (1000 nM, growth phase, over 4 days of growth). Besides, in assay [4] (10^-7 M every two days, six days in culture), the “Effect on HepG2 cell proliferation, repeated administration” value is recorded as “significantly suppressed”. Moreover, the “Reversal of HepG2 growth suppression after removing the peptide or adding GnRH antagonist” value in assay [4] (after three days of treatment) is “can not be reversed; also recorded: cannot be reversed”. Moreover, the “Effect on HepG2 cell proliferation” value in assay [4] (single administration at 10^-7 M, six days in culture) is “significantly suppressed”. Moreover, in assay [5] (10^-7 M, over 4 days of incubation), the “3H-thymidine incorporation in HepG2 cells” value was “blocked further ^3 H-thymidine incorporation above the day 1 level”. In addition, the “ED50, inhibition of DNA synthesis (3H-thymidine incorporation) in HepG2 cells” value was 0.18 ± 0.03 nM in assay [5] (after 72 hours in culture) and 0.14 ± 0.02 nM in assay [5] (after 96 hours in culture). Moreover, the “Effect on HuH-7 cell proliferation” value in assay [6] is given as “significantly suppressed; also recorded: totally inhibited”. In assay [7], the “3H-thymidine incorporation in HuH-7 cells” value is “blocked further ^3 H-thymidine incorporation above day 1 level”.

The values above are taken from patent US5760000A (University Technologies International,Inc., priority 1994, dated 1998).
